Laboratory results from patent publication US20240140991A1, “ANTIBIOTIC NATURAL PRODUCT ANALOGUES” (THE QUEEN'S UNIVERSITY OF BELFAST, priority 2021, published 2024).
Values after ≈ are worked out from the molar mass of the structure shown. Positions of bridges follow the written chain, without caps; N, C: chain ends. Non-standard residues stand in square brackets, D forms with d. Residues, ends and D or L forms follow the SMILES beside them. ξ: configuration not given here. *: point of attachment. Octanoyl(7-Me) = CC(C)CCCCCC(=O)*; Hexanoyl(4ξ-Me) = CCC(C)CCC(=O)*; dOrn = NCCC[C@@H](N)C(=O)O; Octanoyl = CCCCCCCC(=O)*; Orn = NCCC[C@H](N)C(=O)O; Dap = NC[C@H](N)C(=O)O; Alloc = C=CCOC(=O)*

Test system: Escherichia coli ATCC 25922
Assay type: cell-based
Settings: ATCC 25922
Experimental: Minimum inhibitory concentration (MIC) was determined by broth microdilution according to CLSI guidelines. Blood agar plates were inoculated with glycerol stocks of Escherichia coli ATCC 25922, E. coli ATCC 25922 MCR-1, E. coli MCR-1 (clinical isolate from Utrecht Medical Center, NL), E. coli EQAS MCR-2 (clinical isolate from Wageningen University and Research, NL), Kiebsielia pneumoniae ATCC 11228, K. pneumoniae ATCC 13883, K. pneumonia 2048 (clinical isolate from Vrije Universiteit Amsterdam Medical Center, NL), K. pneumonia JS-123 (clinical isolate from Utrecht Medical Center, NL), Acinetobacter baumannii ATCC 17961, A. baumannil ATCC 17978, A. baumannii 2018-006 (clinical isolate from Rijksinstituut voor Volksgezondheid en Milieu, NL), A. baumannii MDR (clinical isolate from Vrije Universiteit Amsterdam Medical Center, NL), Pseudomonas aeruginosa ATCC 27853, P. aeruginosa PAO1, P. aeruginosa NRZ-03961 (Reference strain from Das Nationale Referenzzentrum für gramnegative Krankenhauserreger, DE), P. aeruginosa M-120 (clinical isolate from Leiden University Medical Center, NL) and Staphylococcus aureus USA300 (clinical isolate from Texas Children's Hospitalm, USA). E. coli 25922 MCR1 was grown on LB agar supplemented with kanamycin. The inoculated agar plates were then incubated for 16 hours at 37° C. Individually grown colonies were subsequently used to inoculate 3 mL aliquots of TSB that were then incubated at 37° C. with shaking at 220 rpm. In parallel, the compounds to be assessed were serially diluted with Mueller-Hinton broth (MHB) in polypropylene 96-well plates (50 μL in each well). Once the OD600 of the bacterial suspensions reached 0.5, the bacteria were diluted with MHB (final concentration 2×10^5 CFU mL^−1) and added to the microplates containing the test compounds (50 μL to each well, final volume: 100 μL). The well-plates were sealed with an adhesive membrane and after 16 hours of incubation at 37° C. with shaking at 220 rpm the wells were visually inspected for bacterial growth. MIC values were defined as the lowest concentration of the compound that prevented visible growth of bacteria.

| SMILES | Minimum inhibitory concentration (MIC) |
| --- | --- |
| CC[C@H](C)[C@H](NC(=O)[C@H](CO)NC(=O)[C@H](Cc1c[nH]c2ccccc12)NC(=O)[C@@H](CCCN)NC(=O)CNC(=O)[C@H](CCCN)NC(=O)[C@@H](CCCN)NC(=O)[C@@H](Cc1c[nH]c2ccccc12)NC(=O)[C@@H](Cc1ccc(O)cc1)NC(=O)[C@@H](CO)NC(=O)CCCCCC(C)C)C(=O)N[C@@H](CC(N)=O)C(N)=O [ΔG12-G13-Ser9-isoC9] ({Octanoyl(7-Me)}-[dS][dY][dW][dOrn][Orn]G[dOrn]WSIN-NH2) | 4 µg/mL (≈ 2.68 µM) |
| CC[C@H](C)[C@H](NC(=O)[C@@H](NC(=O)[C@H](Cc1c[nH]c2ccccc12)NC(=O)[C@@H](CCCN)NC(=O)CNC(=O)[C@H](CCCN)NC(=O)[C@@H](CCCN)NC(=O)[C@@H](Cc1c[nH]c2ccccc12)NC(=O)[C@@H](Cc1ccc(O)cc1)NC(=O)[C@@H](CO)NC(=O)CCCCCC(C)C)[C@@H](C)O)C(=O)N[C@@H](CC(N)=O)C(=O)NCC(N)=O [ΔG13, FA-sywoOGoWTING-CONH2] ({Octanoyl(7-Me)}-[dS][dY][dW][dOrn][Orn]G[dOrn]WTING-NH2) | 2 µg/mL (≈ 1.28 µM) |
| CC(C)CCCCCC(=O)N[C@H](CO)C(=O)N[C@H](Cc1ccc(O)cc1)C(=O)N[C@H](Cc1c[nH]c2ccccc12)C(=O)N[C@H](CCCN)C(=O)N[C@@H](CCCN)C(=O)NCC(=O)N[C@H](CCCN)C(=O)N[C@@H](Cc1c[nH]c2ccccc12)C(=O)N[C@H](C(=O)N[C@@H](C)C(=O)N[C@@H](CC(N)=O)C(=O)NCC(=O)NCC(N)=O)[C@@H](C)O [Ala10 (Ile→Ala), FA-sywoOGoWTANGG-CONH2] ({Octanoyl(7-Me)}-[dS][dY][dW][dOrn][Orn]G[dOrn]WTANGG-NH2) | 16 µg/mL (≈ 10.1 µM) |
| C=CCOC(=O)NC[C@H](NC(=O)[C@H](Cc1c[nH]c2ccccc12)NC(=O)[C@@H](CCCN)NC(=O)CNC(=O)[C@H](CCCN)NC(=O)[C@@H](CCCN)NC(=O)[C@@H](Cc1c[nH]c2ccccc12)NC(=O)[C@@H](Cc1ccc(O)cc1)NC(=O)[C@@H](CO)NC(=O)CCCCCC(C)C)C(=O)N[C@H](C(=O)N[C@@H](CC(N)=O)C(=O)NCC(N)=O)[C@@H](C)CC [ΔG13-Dap(Alloc)9-isoC9] ({Octanoyl(7-Me)}-[dS][dY][dW][dOrn][Orn]G[dOrn]W[Dap](Alloc)ING-NH2) | 2 µg/mL (≈ 1.22 µM) |
| CC[C@H](C)[C@H](NC(=O)[C@@H](NC(=O)[C@H](Cc1c[nH]c2ccccc12)NC(=O)[C@@H](CCCN)NC(=O)CNC(=O)[C@H](CCCN)NC(=O)[C@@H](CCCN)NC(=O)[C@@H](Cc1c[nH]c2ccccc12)NC(=O)[C@@H](Cc1ccc(O)cc1)NC(=O)[C@@H](C)NC(=O)CCCCCC(C)C)[C@@H](C)O)C(=O)N[C@@H](CC(N)=O)C(=O)NCC(=O)NCC(N)=O [Ala1 (D-Ser→D-Ala), FA-aywoOGoWTINGG-CONH2] ({Octanoyl(7-Me)}-[dA][dY][dW][dOrn][Orn]G[dOrn]WTINGG-NH2) | 4 to 8 µg/mL |
| C=CCOC(=O)NC[C@H](NC(=O)[C@H](Cc1c[nH]c2ccccc12)NC(=O)[C@@H](CCCN)NC(=O)CNC(=O)[C@H](CCCN)NC(=O)[C@@H](CCCN)NC(=O)[C@@H](Cc1c[nH]c2ccccc12)NC(=O)[C@@H](Cc1ccc(O)cc1)NC(=O)[C@@H](CO)NC(=O)CCCCCC(C)C)C(=O)N[C@H](C(=O)N[C@@H](CC(N)=O)C(=O)NCC(=O)NCC(N)=O)[C@@H](C)CC [Dap(Alloc)9-CONH2] ({Octanoyl(7-Me)}-[dS][dY][dW][dOrn][Orn]G[dOrn]W[Dap](Alloc)INGG-NH2) | 2 µg/mL (≈ 1.18 µM) |
| CCC(C)CCC(=O)N[C@H](CO)C(=O)N[C@H](Cc1ccc(O)cc1)C(=O)N[C@H](Cc1c[nH]c2ccccc12)C(=O)N[C@H](CCCN)C(=O)N[C@@H](CCCN)C(=O)NCC(=O)N[C@H](CCCN)C(=O)N[C@@H](Cc1c[nH]c2ccccc12)C(=O)N[C@@H]1C(=O)N[C@@H]([C@@H](C)CC)C(=O)NCC(=O)N[C@H](CO)C(=O)N[C@@H](C)C(=O)O[C@@H]1C (stereo partly shown) [Compound R6] ({Hexanoyl(4ξ-Me)}-[dS][dY][dW][dOrn][Orn]G[dOrn]WTIG[dS]A; ester 9-C; N-terminus assumed) | 1 µg/mL (≈ 0.639 µM) |
| CC[C@H](C)[C@H](NC(=O)[C@@H](NC(=O)[C@H](Cc1c[nH]c2ccccc12)NC(=O)[C@@H](CCCN)NC(=O)CNC(=O)[C@H](CCCN)NC(=O)[C@@H](CCCN)NC(=O)[C@@H](Cc1c[nH]c2ccccc12)NC(=O)[C@@H](Cc1ccc(O)cc1)NC(=O)[C@@H](CO)NC(=O)CCCCCC(C)C)[C@@H](C)O)C(=O)N[C@@H](CC(N)=O)C(N)=O [ΔG12-G13, FA-sywoOGoWTIN-CONH2] ({Octanoyl(7-Me)}-[dS][dY][dW][dOrn][Orn]G[dOrn]WTIN-NH2) | 4 µg/mL (≈ 2.65 µM) |
| C[C@@H](N=[N+]=[N-])[C@H](N)C(=O)O [(2S,3R)-2-amino-3-azidobutanoic acid] | 2 to 4 µg/mL |
| CCC(C)CCC(=O)N[C@H](CO)C(=O)N[C@H](Cc1ccc(O)cc1)C(=O)N[C@H](Cc1c[nH]c2ccccc12)C(=O)N[C@H](CCCN)C(=O)N[C@@H](CCCN)C(=O)NCC(=O)N[C@H](CCCN)C(=O)N[C@@H](Cc1c[nH]c2ccccc12)C(=O)N[C@@H]1C(=O)N[C@@H]([C@@H](C)CC)C(=O)NCC(=O)N[C@H](CO)C(=O)NCC(=O)O[C@@H]1C (stereo partly shown) [Compound R2] ({Hexanoyl(4ξ-Me)}-[dS][dY][dW][dOrn][Orn]G[dOrn]WTIG[dS]G; ester 9-C; N-terminus assumed) | 2 µg/mL (≈ 1.29 µM) |
| CCC(C)CCC(=O)N[C@H](CO)C(=O)N[C@H](Cc1ccc(O)cc1)C(=O)N[C@H](Cc1c[nH]c2ccccc12)C(=O)N[C@H](CCCN)C(=O)N[C@@H](CCCN)C(=O)NCC(=O)N[C@H](CCCN)C(=O)N[C@@H](Cc1c[nH]c2ccccc12)C(=O)N[C@@H]1C(=O)N[C@@H]([C@@H](C)CC)C(=O)NCC(=O)N[C@H](CO)C(=O)N[C@H](C)C(=O)O[C@@H]1C (stereo partly shown) [Compound R8] ({Hexanoyl(4ξ-Me)}-[dS][dY][dW][dOrn][Orn]G[dOrn]WTIG[dS][dA]; ester 9-C; N-terminus assumed) | 1 to 2 µg/mL |
| CC[C@H](C)[C@H](NC(=O)[C@H](CO)NC(=O)[C@H](Cc1c[nH]c2ccccc12)NC(=O)[C@@H](CCCN)NC(=O)CNC(=O)[C@H](CCCN)NC(=O)[C@@H](CCCN)NC(=O)[C@@H](Cc1c[nH]c2ccccc12)NC(=O)[C@@H](Cc1ccc(O)cc1)NC(=O)[C@@H](CO)NC(=O)CCCCCC(C)C)C(=O)N[C@@H](CC(N)=O)C(=O)NCC(N)=O [ΔG13-Ser9-isoC9] ({Octanoyl(7-Me)}-[dS][dY][dW][dOrn][Orn]G[dOrn]WSING-NH2) | 4 µg/mL (≈ 2.58 µM) |
| CC[C@H](C)[C@H](NC(=O)[C@@H](NC(=O)[C@H](Cc1c[nH]c2ccccc12)NC(=O)[C@@H](CCCN)NC(=O)CNC(=O)[C@H](CCCN)NC(=O)[C@@H](CCCN)NC(=O)[C@@H](Cc1c[nH]c2ccccc12)NC(=O)[C@@H](C)NC(=O)[C@@H](CO)NC(=O)CCCCCC(C)C)[C@@H](C)O)C(=O)N[C@@H](CC(N)=O)C(=O)NCC(=O)NCC(N)=O [Ala2 (D-Tyr→D-Ala), FA-sawoOGoWTINGG-CONH2] ({Octanoyl(7-Me)}-[dS][dA][dW][dOrn][Orn]G[dOrn]WTINGG-NH2) | 8 to 16 µg/mL |
| CCCCCCCC(=O)N[C@H](CO)C(=O)N[C@H](Cc1ccc(O)cc1)C(=O)N[C@H](Cc1c[nH]c2ccccc12)C(=O)N[C@H](CCCN)C(=O)N[C@@H](CCCN)C(=O)NCC(=O)N[C@H](CCCN)C(=O)N[C@@H](Cc1c[nH]c2ccccc12)C(=O)N[C@@H](CO)C(=O)N[C@H](C(=O)N[C@@H](CC(N)=O)C(=O)NCC(N)=O)[C@@H](C)CC [ΔG13-Ser9-C8] (Octanoyl-[dS][dY][dW][dOrn][Orn]G[dOrn]WSING-NH2) | 4 µg/mL (≈ 2.6 µM) |
| CC[C@H](C)[C@H](NC(=O)[C@@H](NC(=O)[C@H](Cc1c[nH]c2ccccc12)NC(=O)[C@@H](CCCN)NC(=O)CNC(=O)[C@H](CCCN)NC(=O)[C@@H](CCCN)NC(=O)[C@@H](Cc1c[nH]c2ccccc12)NC(=O)[C@@H](Cc1ccc(O)cc1)NC(=O)[C@@H](CO)NC(=O)CCCCCC(C)C)[C@@H](C)O)C(=O)N[C@@H](CC(N)=O)C(=O)N[C@@H](C)C(=O)NCC(N)=O [Ala12 (Gly→Ala), FA-sywoOGoWTINAG-CONH2] ({Octanoyl(7-Me)}-[dS][dY][dW][dOrn][Orn]G[dOrn]WTINAG-NH2) | 4 µg/mL (≈ 2.45 µM) |
| CC[C@H](C)[C@@H]1NC(=O)[C@@H](NC(=O)[C@H](Cc2c[nH]c3ccccc23)NC(=O)[C@@H](CCCN)NC(=O)CNC(=O)[C@H](CCCN)NC(=O)[C@@H](CCCN)NC(=O)[C@@H](Cc2c[nH]c3ccccc23)NC(=O)[C@@H](Cc2ccc(O)cc2)NC(=O)[C@@H](CO)NC(=O)CCCCCC(C)C)[C@@H](C)OC(=O)CNC(=O)[C@@H](CO)NC(=O)CNC1=O [Compound R4] ({Octanoyl(7-Me)}-[dS][dY][dW][dOrn][Orn]G[dOrn]WTIG[dS]G; ester 9-C; N-terminus assumed) | 2 to 4 µg/mL |
